Where a name gives a salt, the structure may show the parent alone. Read-outs that look alike come from different tables or passages of the source.

In one assay the target is T1, σ2R (Rattus norvegicus, UniProt Q5U3Y7).
T1 construct: The thawed membrane preparation of rat liver (250 μg/sample) was incubated; from tissue; host or cells: liver membranes of male Sprague-Dawley rats
T1 sequence (Q5U3Y7 1-176): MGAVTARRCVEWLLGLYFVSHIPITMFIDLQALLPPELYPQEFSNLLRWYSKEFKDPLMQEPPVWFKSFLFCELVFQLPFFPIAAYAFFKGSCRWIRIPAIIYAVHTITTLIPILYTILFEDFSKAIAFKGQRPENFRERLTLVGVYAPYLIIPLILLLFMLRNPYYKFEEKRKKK
The experiment in a line: σ2R radioligand competition binding assay ([3H]DTG, rat liver membranes).

Assay [1] has as its system formalin-induced pain behaviour. The experiment in a line: Mouse formalin test. In kind it is in vivo. How it is done:
Mice injected with 5% formalin into the mid-plantar surface of the right hind paw developed the characteristic formalin-induced pain behaviour, evidenced by a biphasic flinching and lifting/licking response. The time course of formalin-induced behaviours evidenced an immediate and acute nociceptive activity (0–5 min, phase I) that, after a short quiescent period (5–10 min, interphase), was followed by a more prolonged response (10–60 min, phase II).
To evaluate the systemic antinociceptive effect in both phases of the formalin test, vehicle, (−)-2R-LP2 (2) (2mg/kg), (−)-2S-LP2 (3) (0.7 mg/kg), (+)-2R/S-LP2 (7) (5 mg/kg), and (+)-2R-LP2 (8) (5 mg/kg) were administrated intraperitoneally (i.p.) 20 min before formalin injection, at doses chosen in accordance to previous studies.
Experiments were performed on male CD1 mice (Envigo Laboratories, Indianapolis, IN, USA) aged between 8 and 12 weeks. Mice were housed in 5 animals per cage under a 12/12 h light/dark cycle at a constant temperature (23–25 °C) with free access to food and water, and were allowed to acclimate for at least one week upon arrival before starting all experiments, which were conducted between 9:00 a.m. and 3:00 p.m. This study was executed according to the European Communities Council directive and Italian regulation (EEC Council 2010/63/EU and Italian D.Lgs. no. 26/2014) to replace, reduce, and refine the use of laboratory animals. All procedures were approved by the ethical committee of the University of Catania (OPBA) and by the Italian Ministry of Health (authorization n° 385/2021-PR).
Formalin and naloxone hydrochloride were purchased from Merck. PRE-84 synthesis was reported in the supporting information (Figure S7). All compounds were dissolved in pyrogen-free isotonic saline and dimethyl sulfoxide, (DMSO 0.5% v/v). All LP compounds were administrated i.p. 20 min before formalin injection. Naloxone hydrochloride s.c. and PRE-084 hydrochloride s.c. were administered 20 min before the injection of the LP compounds.
Formalin solution (5%, 10 μL) was administered subcutaneously into the plantar surface of the right hind paw (i.pl.), monitoring the nociceptive behavior, such as licking and flicking or shanking the injected paw, for 1 h and recording every 5 min, as previously reported.
The formalin injection induces a rapid pain response (phase I), which lasts about 5 min, due to direct nociceptors’ activation, characterized by an acute form of pain. After a short quiescent period, another behavioral pain form (phase II) occurs, considered more important clinically, characterized by an inflammatory component and persistent pain due to nociceptive sensitization in the dorsal horn of the spinal cord.
Results are expressed as mean ± S.E.M. (n = 8–10 per group). * p < 0.05, ** p < 0.01. Two-way ANOVA was followed by Bonferroni’s multiple comparison test. Statistical analyses were performed using GraphPad Prism version 9.3.1 (GraphPad Software, San Diego, CA, USA).

The target in the next assay is T2, σ1R (Cavia porcellus, UniProt Q60492).
T2 construct: The thawed membrane preparation of guinea pig brain cortex (250 μg/sample) was incubated; from tissue; host or cells: brain cortex membranes of male Dunkin-Hartley guinea pigs
The experiment in a line: σ1R radioligand competition binding assay ([3H]-(+)-pentazocine, guinea pig brain cortex membranes). The note with it: for Ki σ2R/σ1R selectivity ratio: ratio of Ki σ2R to Ki σ1R.

The target in a further assay is T3, KOR (Cavia porcellus, UniProt P41144).
T3 construct: from tissue; host or cells: brain membranes of male Dunkin-Hartley guinea pigs
In words: biochemical. In kind it is binding, guinea pig.

For another assay, the target named is T4, MOR (Rattus norvegicus, UniProt P33535).
T4 construct: from tissue; host or cells: brain membranes of male Sprague-Dawley rats
In words: MOR radioligand binding assay ([3H]-DAMGO, rat brain membranes).

The next assay has as its target T5, DOR (Rattus norvegicus, UniProt P33533).
T5 construct: from tissue; host or cells: brain membranes of male Sprague-Dawley rats
The experiment in a line: DOR radioligand binding assay ([3H]-Deltorphin II, rat brain membranes).

Assay [2] has as its system formalin-induced pain behaviour. Details: method as in PMID 32186844, PMID 19587856. The following applies: mouse, injected alone; cited from earlier work.
The mark [3] stands for this setting: 5 mg/kg i.p. 20 min before formalin, vs vehicle.

T4 sequence (P33535 whole entry): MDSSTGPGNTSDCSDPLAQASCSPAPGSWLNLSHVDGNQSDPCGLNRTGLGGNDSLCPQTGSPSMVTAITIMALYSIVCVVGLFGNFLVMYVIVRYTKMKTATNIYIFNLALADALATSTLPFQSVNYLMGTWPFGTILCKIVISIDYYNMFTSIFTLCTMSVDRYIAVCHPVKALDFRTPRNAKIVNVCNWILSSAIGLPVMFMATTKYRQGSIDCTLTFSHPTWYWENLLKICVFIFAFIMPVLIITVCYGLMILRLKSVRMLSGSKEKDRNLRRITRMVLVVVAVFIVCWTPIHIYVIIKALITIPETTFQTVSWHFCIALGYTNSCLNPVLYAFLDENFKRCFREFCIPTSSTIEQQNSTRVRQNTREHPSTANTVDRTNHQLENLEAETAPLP
T5 sequence (P33533 whole entry): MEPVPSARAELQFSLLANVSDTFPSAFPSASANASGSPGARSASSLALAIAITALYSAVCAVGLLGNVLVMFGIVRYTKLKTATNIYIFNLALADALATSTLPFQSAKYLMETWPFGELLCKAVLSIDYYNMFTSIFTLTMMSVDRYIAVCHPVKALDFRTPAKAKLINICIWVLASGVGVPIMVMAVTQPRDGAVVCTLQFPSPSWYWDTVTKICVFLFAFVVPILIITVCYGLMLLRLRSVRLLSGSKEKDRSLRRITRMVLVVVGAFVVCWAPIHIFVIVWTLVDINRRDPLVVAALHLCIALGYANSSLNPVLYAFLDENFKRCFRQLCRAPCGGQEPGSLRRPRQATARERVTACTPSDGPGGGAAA
T3 sequence (P41144 whole entry): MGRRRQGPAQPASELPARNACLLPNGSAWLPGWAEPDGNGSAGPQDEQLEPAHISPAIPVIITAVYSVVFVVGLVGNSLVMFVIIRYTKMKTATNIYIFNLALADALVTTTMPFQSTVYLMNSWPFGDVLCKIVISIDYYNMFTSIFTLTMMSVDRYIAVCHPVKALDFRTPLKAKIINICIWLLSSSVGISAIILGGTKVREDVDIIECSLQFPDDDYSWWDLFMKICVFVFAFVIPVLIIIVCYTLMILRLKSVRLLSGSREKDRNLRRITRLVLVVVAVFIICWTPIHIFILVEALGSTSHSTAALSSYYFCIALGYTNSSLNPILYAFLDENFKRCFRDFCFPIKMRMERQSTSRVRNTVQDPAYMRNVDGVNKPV
T2 sequence (Q60492 whole entry): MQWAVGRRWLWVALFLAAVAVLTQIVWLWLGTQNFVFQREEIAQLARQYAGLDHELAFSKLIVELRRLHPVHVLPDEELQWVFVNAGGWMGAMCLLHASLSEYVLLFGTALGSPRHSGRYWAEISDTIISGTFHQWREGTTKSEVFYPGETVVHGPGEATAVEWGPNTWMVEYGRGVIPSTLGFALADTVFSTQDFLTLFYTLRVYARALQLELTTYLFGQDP

Consider `CO[C@@H](CN1CC[C@@]2(C)c3cc(O)ccc3C[C@@H]1[C@@H]2C)c1ccccc1` [(−)-2R-LP2 (2)], for which the Ki on σ2R stood at 0.0667 ± 0.0179 µM; at σ1R, 183 ± 21 nM. For the same compound, in assay [1] (2 mg/kg i.p. 20 min before 5% formalin), the “analgesic effect, flinching/licking time in both phases of the formalin test” value was “same profile with a minor potency”.
In the case of `CO[C@@H](CN1CC[C@]2(C)c3cc(O)ccc3C[C@H]1[C@H]2C)c1ccccc1` [(+)-2R-LP2 (8), (2S,6S,11S)-3-((R)-2-methoxy-2-phenylethyl)-6,11-dimethyl-1,2,3,4,5,6-hexahydro-2,6-methanobenzo[d]azocin-8-ol], the Ki on σ2R came out at 1.91 ± 0.325 µM; at KOR, 1.61 ± 0.07 µM; at MOR it was 0.789 ± 0.03 µM; on DOR it was 1.01 ± 0.025 µM; at σ1R it was 47.9 ± 7.52 nM. For the same compound, the “effect on nociceptive behaviour in the formalin test” value in assay [1] (setting [3]) was “not significative”. Besides, the “Ki σ2R/σ1R selectivity ratio” value on σ1R was 40.
As to `COC(CN1CC[C@@]2(C)c3cc(O)ccc3C[C@@H]1[C@@H]2C)c1ccccc1` (single isomer, unassigned; (-)) [(−)-2R/S-LP2 (1)], the results for the inhibition constant (Ki) on σ2R and on σ1R were 0.0665 ± 0.0109 µM and 171 ± 46.1 nM, respectively.
`COC(CN1CC[C@]2(C)c3cc(O)ccc3C[C@H]1[C@H]2C)c1ccccc1` (single isomer, unassigned; (+)) [(+)-2R/S-LP2 (7)]: the inhibition constant (Ki) on σ2R worked out at 2.39 ± 0.514 µM; on KOR, 1.39 ± 0.04 µM; at MOR it was 1.14 ± 0.02 µM; at DOR, 1.03 ± 0.035 µM; on σ1R it was 26.6 ± 2.35 nM. Besides, the “severity of the first phase of formalin-induced pain” value in assay [1] (5 mg/kg i.p. 20 min before formalin, phase I) is “did not alter”. Moreover, the “second phase of formalin-induced pain (number of flinches, lifting/licking time)” value in assay [1] (5 mg/kg i.p. 20 min before formalin, phase II, vs vehicle) is recorded as “significantly decreased”. Moreover, in assay [1] (PRE-084 hydrochloride 32 mg/kg s.c. 20 min before compound 5 mg/kg i.p., second phase), the “antinociceptive effect after PRE-084 pre-treatment” value was “prevented”.
With `CO[C@H](CN1CC[C@]2(C)c3cc(O)ccc3C[C@H]1[C@H]2C)c1ccccc1` [(+)-2S-LP2 (9), (2S,6S,11S)-3-((S)-2-methoxy-2-phenylethyl)-6,11-dimethyl-1,2,3,4,5,6-hexahydro-2,6-methanobenzo[d]azocin-8-ol], the Ki on σ2R stood at 2.22 ± 0.417 µM; on KOR it was 1.45 ± 0.029 µM; at MOR it was 1.17 ± 0.03 µM; at DOR, 1.04 ± 0.04 µM; on σ1R, 47 ± 8.82 nM. Also, in assay [1] (setting [3]), the “effect on nociceptive behaviour in the formalin test” value is on record as “did not differ significantly from the vehicle”. Besides, the “Ki σ2R/σ1R selectivity ratio” value at σ1R amounted to 47.
As for `CO[C@H](CN1CC[C@@]2(C)c3cc(O)ccc3C[C@@H]1[C@@H]2C)c1ccccc1` [(−)-2S-LP2 (3)], the inhibitory constant (Ki) came to 1.01 ± 0.191 µM at σ2R and 113 ± 13.5 nM at σ1R. The “analgesic effect, flinching/licking time in both phases of the formalin test” value in assay [1] (0.7 mg/kg i.p. 20 min before 5% formalin) was “significant analgesic effect”. The “antinociceptive effect after naloxone pre-treatment” value in assay [1] (naloxone hydrochloride 3 mg/kg s.c. 20 min before compound 0.7 mg/kg i.p.) is reported as “antagonized”.
In the case of `CN1CCN(CCc2ccc(Cl)c(Cl)c2)CC1` [BD-1063, reference compound], the inhibition constant (Ki) on σ1R ([3H]-(+)-pentazocine 2 nM, guinea pig brain cortex membranes, read-out: Ki (nM) ± SD σ1R) was determined as 14 ± 2.7 nM.
As for `O=C(OCCN1CCOCC1)C1(c2ccccc2)CCCCC1` [PRE-084 hydrochloride, 2-morpholinoethyl 1-phenylcyclohexane-1-carboxylate], the “severity of the first and second phases of formalin-induced pain, given alone” value in assay [2] was “did not change”.
